Source: ChEMBL document CHEMBL1201862, “PubChem BioAssay data set” (2004)
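Interpolation was linear, between the two tested concentrations surrounding the appropriate level; five concentrations were tested over 48 hours in 96-well plates. GI50: concentration for 50% inhibition of growth.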 Activity calls are given as the source filed them. Cut-off read from the data, not from the text of the source: active = GI50 up to about 1.1 µM and inactive = higher.

What was measured:
Experiment in all cases: DTP human tumour cell line panel, 48 h
[1] = tested on: NCI-H522
[2] = tested on: U-251
[3] = tested on: LOX IMVI
[4] = tested on: 786-0
[5] = tested on: M14
[6] = tested on: HCT-15
[7] = tested on: NCI/ADR-RES
[8] = tested on: K562
[9] = tested on: ACHN
[10] = tested on: SF-295
[11] = tested on: UACC-257
[12] = tested on: NCI-H460
[13] = tested on: MDA-N
[14] = tested on: MDA-MB-231
[15] = tested on: SNB-19
[16] = tested on: NCI-H226

COc1cnc2oc3ccc(O)cc3c2c1-c1ccccc1
GI50 [1]: > 100 µM (inactive) | GI50 [2]: > 100 µM (inactive) | GI50 [3]: > 100 µM (inactive) | GI50 [4]: 21.9 µM (inactive) | GI50 [5]: 18.7 µM (inactive) | GI50 [6]: > 100 µM | GI50 [7]: 30.3 µM (inactive) | GI50 [8]: 22.1 µM (inactive) | GI50 [9]: > 100 µM (inactive) | GI50 [10]: 83 µM (inactive) | GI50 [11]: 88.5 µM (inactive) | GI50 [12]: > 100 µM (inactive)

COC(=O)CCCC(=O)NC1=C(Nc2ccccc2)C(=O)c2ccccc2C1=O
GI50 [1]: 16.9 µM (inactive) | GI50 [2]: 14.4 µM (inactive) | GI50 [13]: 3.89 µM (inactive) | GI50 [3]: 17.4 µM (inactive) | GI50 [4]: 17.9 µM (inactive) | GI50 [5]: 16.1 µM (inactive) | GI50 [14]: 19.1 µM (inactive) | GI50 [6]: 15.1 µM | GI50 [7]: 18.2 µM (inactive) | GI50 [8]: 19.2 µM (inactive) | GI50 [9]: 19.3 µM (inactive) | GI50 [15]: 18.2 µM (inactive) | GI50 [10]: 17.5 µM (inactive) | GI50 [11]: 13.3 µM (inactive) | GI50 [12]: 16.6 µM (inactive)

C1=C[C@@H]2c3ccc4cnccc4c3NC[C@@H]2C1
GI50 [2]: > 100 µM (inactive) | GI50 [16]: > 100 µM (inactive) | GI50 [13]: > 100 µM (inactive) | GI50 [4]: > 100 µM (inactive) | GI50 [5]: > 100 µM (inactive) | GI50 [6]: > 100 µM | GI50 [7]: > 100 µM (inactive) | GI50 [8]: > 100 µM (inactive) | GI50 [9]: > 100 µM (inactive) | GI50 [15]: > 100 µM (inactive) | GI50 [10]: > 100 µM (inactive) | GI50 [11]: > 100 µM (inactive) | GI50 [12]: > 100 µM (inactive)

Cc1nc2c(O)cc3c4c([nH]c3c2nc1C)C(=O)CCC4
GI50 [2]: 2.16 µM (inactive) | GI50 [16]: 25.1 µM (inactive) | GI50 [13]: 0.869 µM (active) | GI50 [3]: 2.29 µM (inactive) | GI50 [4]: 5.85 µM (inactive) | GI50 [5]: 3.35 µM (inactive) | GI50 [14]: 7.45 µM (inactive) | GI50 [6]: 11.9 µM | GI50 [7]: 34.6 µM (inactive) | GI50 [8]: 5.06 µM (inactive) | GI50 [9]: 5.45 µM (inactive) | GI50 [15]: 9.42 µM (inactive) | GI50 [10]: 5.08 µM (inactive) | GI50 [11]: 95.1 µM (inactive) | GI50 [12]: 3.51 µM (inactive)

O=C1NCN(c2ccccc2)C12CCN(CCc1ccc3[nH]c(=S)[nH]c3c1)CC2
GI50 [1]: 43.4 µM (inactive) | GI50 [2]: 29.4 µM (inactive) | GI50 [3]: 18.5 µM (inactive) | GI50 [4]: 33.5 µM (inactive) | GI50 [5]: 19.6 µM (inactive) | GI50 [14]: 19.5 µM (inactive) | GI50 [6]: > 100 µM | GI50 [7]: > 100 µM (inactive) | GI50 [9]: > 100 µM (inactive) | GI50 [15]: 43.5 µM (inactive) | GI50 [10]: 51.3 µM (inactive) | GI50 [11]: 0.075 µM (active) | GI50 [12]: 31.8 µM (inactive)

CC(=O)OC[C@@H](OC(C)=O)[C@H](OC(C)=O)[C@@H]1OC(C)(C)O[C@@H]1C1SCCCS1
GI50 [1]: > 100 µM (inactive) | GI50 [2]: > 100 µM (inactive) | GI50 [13]: > 100 µM (inactive) | GI50 [3]: > 100 µM (inactive) | GI50 [4]: > 100 µM (inactive) | GI50 [5]: > 100 µM (inactive) | GI50 [14]: > 100 µM (inactive) | GI50 [8]: > 100 µM (inactive) | GI50 [9]: > 100 µM (inactive) | GI50 [15]: > 100 µM (inactive) | GI50 [10]: > 100 µM (inactive) | GI50 [11]: > 100 µM (inactive) | GI50 [12]: > 100 µM (inactive)

CC1CC[C@@]2(OC1)OC1C[C@H]3[C@@H]4C/C(=N\N(C)C)[C@@]5(O)CC(O)CC[C@]5(C)[C@H]4CC[C@]3(C)C1[C@@H]2C (some centres undefined)
GI50 [2]: 37.2 µM (inactive) | GI50 [16]: > 100 µM (inactive) | GI50 [13]: 23.3 µM (inactive) | GI50 [3]: 42.5 µM (inactive) | GI50 [4]: 40.6 µM (inactive) | GI50 [5]: > 100 µM (inactive) | GI50 [14]: 52.1 µM (inactive) | GI50 [6]: 67.1 µM | GI50 [7]: 49.4 µM (inactive) | GI50 [8]: 38.7 µM (inactive) | GI50 [9]: 73.3 µM (inactive) | GI50 [15]: 38.7 µM (inactive) | GI50 [11]: 67.5 µM (inactive) | GI50 [12]: 45.9 µM (inactive)

Clc1cc(OC2C3CC4CC(C3)CC2C4)nc(Cl)n1 (centres undefined)
GI50 [1]: 12.4 µM (inactive) | GI50 [2]: 17 µM (inactive) | GI50 [13]: 18.8 µM (inactive) | GI50 [3]: 3.86 µM (inactive) | GI50 [4]: 16.8 µM (inactive) | GI50 [5]: 16.2 µM (inactive) | GI50 [14]: 13.7 µM (inactive) | GI50 [6]: 14 µM | GI50 [7]: 31.7 µM (inactive) | GI50 [8]: 4.62 µM (inactive) | GI50 [9]: 17.7 µM (inactive) | GI50 [15]: 36.4 µM (inactive) | GI50 [10]: 18 µM (inactive) | GI50 [11]: 13.9 µM (inactive) | GI50 [12]: 17.7 µM (inactive)

O=c1[nH]c(=S)[nH]cc1CN1CCOCC1
GI50 [1]: > 100 µM (inactive) | GI50 [2]: > 100 µM (inactive) | GI50 [13]: > 100 µM (inactive) | GI50 [3]: > 100 µM (inactive) | GI50 [4]: > 100 µM (inactive) | GI50 [5]: > 100 µM (inactive) | GI50 [14]: > 100 µM (inactive) | GI50 [6]: > 100 µM | GI50 [7]: > 100 µM (inactive) | GI50 [8]: > 100 µM (inactive) | GI50 [9]: > 100 µM (inactive) | GI50 [15]: > 100 µM (inactive) | GI50 [10]: > 100 µM (inactive) | GI50 [11]: > 100 µM (inactive) | GI50 [12]: > 100 µM (inactive)

Cc1nn(C(=O)Cc2ccccc2)c2c1C(c1ccc(O)cc1)SC(=N)N2 (centres undefined)
GI50 [1]: > 100 µM (inactive) | GI50 [16]: > 100 µM (inactive) | GI50 [13]: > 100 µM (inactive) | GI50 [3]: > 100 µM (inactive) | GI50 [4]: > 100 µM (inactive) | GI50 [5]: > 100 µM (inactive) | GI50 [14]: > 100 µM (inactive) | GI50 [6]: > 100 µM | GI50 [8]: > 100 µM (inactive) | GI50 [9]: > 100 µM (inactive) | GI50 [15]: > 100 µM (inactive) | GI50 [10]: > 100 µM (inactive) | GI50 [11]: > 100 µM (inactive) | GI50 [12]: > 100 µM (inactive)
